Assay results published in PMC5218480 (PLoS ONE, 2017).

Test system: MV-4-11 cells
Experiment: Gene expression microarray analysis (Affymetrix PrimeView) and GSEA
Type: cell-based, human
Set-up: RFU PODN (11730768_x_at) / Fold change /veh PODN (11730768_x_at) / RFU LINC00158 (11744669_a_at) / Fold change /veh LINC00158 (11744669_a_at) / RFU DUSP10 (11751237_a_at) / Fold change /veh DUSP10 (11751237_a_at) / RFU ID3 (11757404_x_at) / Fold change /veh ID3 (11757404_x_at) / RFU PLEKHG5 (11737974_s_at) / Fold change /veh PLEKHG5 (11737974_s_at) / RFU LRRC4B (11730491_at) / Fold change /veh LRRC4B (11730491_at) / RFU GIMAP4 (11747438_a_at) / Fold change /veh GIMAP4 (11747438_a_at) / RFU KRT8 (11758183_x_at) / Fold change /veh KRT8 (11758183_x_at) / RFU CNN1 (11734310_a_at) / Fold change /veh CNN1 (11734310_a_at) / RFU VPS37D (11726825_at) / Fold change /veh VPS37D (11726825_at) / RFU C10orf10 (11716522_x_at) / Fold change /veh C10orf10 (11716522_x_at) / RFU KIR2DL2 /// KIR2DL4 /// KIR2DL5A /// KIR2DL5B /// KIR2DS1 /// KIR2DS2 /// KIR2DS3 /// KIR2DS4 /// KIR3DL3 /// KIR3DL3 /// KIR3DS1 (11738374_at) / Fold change /veh KIR2DL2 /// KIR2DL4 /// KIR2DL5A /// KIR2DL5B /// KIR2DS1 /// KIR2DS2 /// KIR2DS3 /// KIR2DS4 /// KIR3DL3 /// KIR3DL3 /// KIR3DS1 (11738374_at) / RFU C1QL1 (11718748_at) / Fold change /veh C1QL1 (11718748_at) / RFU TMPRSS4 (11747572_a_at) / Fold change /veh TMPRSS4 (11747572_a_at) / RFU HAMP (11756126_x_at) / Fold change /veh HAMP (11756126_x_at) / RFU RNFT2 (11725882_a_at) / Fold change /veh RNFT2 (11725882_a_at) / RFU NR4A2 (11747474_a_at) / Fold change /veh NR4A2 (11747474_a_at) / RFU ABCC12 (11746883_a_at) / Fold change /veh ABCC12 (11746883_a_at) / RFU TMEM136 (11760407_x_at) / Fold change /veh TMEM136 (11760407_x_at) / RFU CLDN22 /// WWC2 (11732394_at) / Fold change /veh CLDN22 /// WWC2 (11732394_at) / RFU HLA-DPB1 (11760878_x_at) / Fold change /veh HLA-DPB1 (11760878_x_at) / RFU SPINT1 (11716480_a_at) / Fold change /veh SPINT1 (11716480_a_at) / RFU GAP43 (11754022_s_at) / Fold change /veh GAP43 (11754022_s_at) / RFU A4GNT (11735810_at) / Fold change /veh A4GNT (11735810_at) / RFU PRB3 (11715151_x_at) / Fold change /veh PRB3 (11715151_x_at) / RFU TUBB4B (11761932_at) / Fold change /veh TUBB4B (11761932_at) / RFU CAPN14 (11732068_a_at) / Fold change /veh CAPN14 (11732068_a_at) / RFU TMCC2 (11721928_a_at) / Fold change /veh TMCC2 (11721928_a_at) / RFU IRGQ (11745062_a_at) / Fold change /veh IRGQ (11745062_a_at) / RFU FAM174B (11720279_a_at) / Fold change /veh FAM174B (11720279_a_at) / RFU TMPRSS4 (11748680_a_at) / Fold change /veh TMPRSS4 (11748680_a_at) / RFU FAM212B (11763350_a_at) / Fold change /veh FAM212B (11763350_a_at) / RFU PLEKHG5 (11743358_a_at) / Fold change /veh PLEKHG5 (11743358_a_at) / RFU ZSCAN30 (11745921_a_at) / Fold change /veh ZSCAN30 (11745921_a_at) / RFU CMKLR1 (11741424_a_at) / Fold change /veh CMKLR1 (11741424_a_at) / RFU LOC101060620 /// MAPK8IP1 (11723275_at) / Fold change /veh LOC101060620 /// MAPK8IP1 (11723275_at) / RFU SPTSSB (11747773_x_at) / Fold change /veh SPTSSB (11747773_x_at) / RFU PRSS12 (11739890_at) / Fold change /veh PRSS12 (11739890_at) / RFU BIN1 (11741810_x_at) / Fold change /veh BIN1 (11741810_x_at) / RFU WNT11 (11732464_a_at) / Fold change /veh WNT11 (11732464_a_at) / RFU C10orf10 (11716521_a_at) / Fold change /veh C10orf10 (11716521_a_at) / RFU C5orf56 (11738089_at) / Fold change /veh C5orf56 (11738089_at) / RFU CYB561 (11721691_x_at) / Fold change /veh CYB561 (11721691_x_at) / RFU ANKRD19P (11752326_a_at) / Fold change /veh ANKRD19P (11752326_a_at) / RFU OR2T12 /// OR2T33 /// OR2T8 (11738714_s_at) / Fold change /veh OR2T12 /// OR2T33 /// OR2T8 (11738714_s_at) / RFU VCAN (11748164_a_at) / Fold change /veh VCAN (11748164_a_at) / RFU JSRP1 (11732532_at) / Fold change /veh JSRP1 (11732532_at) / RFU KRTAP10-11 (11738290_x_at) / Fold change /veh KRTAP10-11 (11738290_x_at) / RFU MYO3A (11730013_a_at) / Fold change /veh MYO3A (11730013_a_at) / RFU EBF3 (11725865_a_at) / Fold change /veh EBF3 (11725865_a_at) / RFU CAMK2N1 (11719241_x_at) / Fold change /veh CAMK2N1 (11719241_x_at) / RFU C5orf56 (11738088_a_at) / Fold change /veh C5orf56 (11738088_a_at) / RFU OLFML3 (11715873_a_at) / Fold change /veh OLFML3 (11715873_a_at) / RFU LOC100653217 /// NTM (11731650_a_at) / Fold change /veh LOC100653217 /// NTM (11731650_a_at) / RFU MAPK11 (11762145_a_at) / Fold change /veh MAPK11 (11762145_a_at) / RFU FIZ1 (11724087_x_at) / Fold change /veh FIZ1 (11724087_x_at) / RFU OASL (11726364_x_at) / Fold change /veh OASL (11726364_x_at) / RFU SOX15 (11748057_x_at) / Fold change /veh SOX15 (11748057_x_at) / RFU CD79A (11719716_a_at) / Fold change /veh CD79A (11719716_a_at) / RFU HIST1H1D (11736915_at) / Fold change /veh HIST1H1D (11736915_at) / RFU CASKIN2 (11723855_a_at) / Fold change /veh CASKIN2 (11723855_a_at) / RFU LOC730098 (11760151_x_at) / Fold change /veh LOC730098 (11760151_x_at) / RFU OR4N2 (11742367_at) / Fold change /veh OR4N2 (11742367_at) / RFU PRRT2 (11749266_a_at) / Fold change /veh PRRT2 (11749266_a_at) / RFU SNX32 (11753110_a_at) / Fold change /veh SNX32 (11753110_a_at) / RFU CDHR5 (11726645_a_at) / Fold change /veh CDHR5 (11726645_a_at) / RFU RCAN1 (11760418_a_at) / Fold change /veh RCAN1 (11760418_a_at) / RFU FAM167A (11723789_a_at) / Fold change /veh FAM167A (11723789_a_at) / RFU FAM26E (11764081_at) / Fold change /veh FAM26E (11764081_at) / RFU ISYNA1 (11749810_s_at) / Fold change /veh ISYNA1 (11749810_s_at) / RFU ACY1 (11761880_at) / Fold change /veh ACY1 (11761880_at) / RFU 11764098_at / Fold change /veh 11764098_at / RFU SAMD14 (11745864_x_at) / Fold change /veh SAMD14 (11745864_x_at) / RFU NPB (11741838_a_at) / Fold change /veh NPB (11741838_a_at) / RFU TMPRSS6 (11731388_a_at) / Fold change /veh TMPRSS6 (11731388_a_at) / RFU KRTAP10-2 (11738614_at) / Fold change /veh KRTAP10-2 (11738614_at) / RFU ARHGAP8 /// PRR5-ARHGAP8 (11727945_x_at) / Fold change /veh ARHGAP8 /// PRR5-ARHGAP8 (11727945_x_at) / RFU KRTAP5-7 /// NADSYN1 (11734609_at) / Fold change /veh KRTAP5-7 /// NADSYN1 (11734609_at) / RFU RASL12 (11751679_a_at) / Fold change /veh RASL12 (11751679_a_at) / RFU CDKN2B (11736163_a_at) / Fold change /veh CDKN2B (11736163_a_at) / RFU PRF1 (11729649_at) / Fold change /veh PRF1 (11729649_at) / RFU, ZNF638 /// ZNF638-IT1 / Fold change vs veh, ZNF638 /// ZNF638-IT1 / RFU, PANK3 / Fold change vs veh, PANK3 / RFU, SH3YL1 / Fold change vs veh, SH3YL1 / RFU, ZEB2 / Fold change vs veh, ZEB2 / RFU, NRIP1 / Fold change vs veh, NRIP1 / RFU, PTTG1IP / Fold change vs veh, PTTG1IP / RFU, CAPN2 / Fold change vs veh, CAPN2 / RFU, MED14 / Fold change vs veh, MED14 / RFU, SNORA58 / Fold change vs veh, SNORA58 / RFU, C1orf63 / Fold change vs veh, C1orf63 / RFU, LRRFIP1 / Fold change vs veh, LRRFIP1 / RFU, NDUFAF7 / Fold change vs veh, NDUFAF7 / RFU, SLC12A2 / Fold change vs veh, SLC12A2 / RFU, IBTK / Fold change vs veh, IBTK / RFU, ESF1 / Fold change vs veh, ESF1 / Fold change vs veh, TMEM50B / RFU, TAOK1 / Fold change vs veh, TAOK1 / RFU, ACBD3 / Fold change vs veh, ACBD3 / RFU, TMA16 / Fold change vs veh, TMA16 / RFU, RWDD3 / Fold change vs veh, RWDD3 / RFU, BCAT1 / Fold change vs veh, BCAT1 / RFU, EDEM3 / Fold change vs veh, EDEM3 / RFU, TMEM33 / Fold change vs veh, TMEM33 / RFU, WDR75 / Fold change vs veh, WDR75 / RFU, AHCTF1 / Fold change vs veh, AHCTF1 / RFU, TFRC / Fold change vs veh, TFRC / RFU, ZDHHC17 / Fold change vs veh, ZDHHC17 / RFU, NOM1 / Fold change vs veh, NOM1 / RFU, ARL8B / Fold change vs veh, ARL8B / RFU, ZBTB11 / Fold change vs veh, ZBTB11 / RFU, TAMM41 / Fold change vs veh, TAMM41 / RFU, KIAA1704 /// LOC100996395 / Fold change vs veh, KIAA1704 /// LOC100996395 / RFU, ING1 / Fold change vs veh, ING1 / RFU, TRMT61B / Fold change vs veh, TRMT61B / RFU, FUBP3 / Fold change vs veh, FUBP3 / RFU, TP53 / Fold change vs veh, TP53 / RFU, TNKS2 / Fold change vs veh, TNKS2 / RFU, ZFP14 / Fold change vs veh, ZFP14 / RFU, ACTR2 / Fold change vs veh, ACTR2 / RFU, PPP3R1 / Fold change vs veh, PPP3R1 / RFU, PIK3R1 / Fold change vs veh, PIK3R1 / RFU, HNRNPA1 / Fold change vs veh, HNRNPA1 / RFU, RNF170 / Fold change vs veh, RNF170 / RFU, ZNF28 / Fold change vs veh, ZNF28 / RFU, RNGTT / Fold change vs veh, RNGTT / RFU, OGT / Fold change vs veh, OGT / RFU, BRD1 / Fold change vs veh, BRD1 / RFU, MARS / Fold change vs veh, MARS / RFU, ZNF655 / Fold change vs veh, ZNF655 / RFU, FAHD1 / Fold change vs veh, FAHD1 / RFU, BDP1 / Fold change vs veh, BDP1 / RFU, LRRCC1 / Fold change vs veh, LRRCC1 / RFU, ARID1A / Fold change vs veh, ARID1A / RFU, ZNF146 / Fold change vs veh, ZNF146 / RFU, ZNF330 / Fold change vs veh, ZNF330 / RFU, GPN3 / Fold change vs veh, GPN3 / RFU, C9orf123 / Fold change vs veh, C9orf123 / RFU, N4BP2L2 / Fold change vs veh, N4BP2L2 / RFU, ARFIP1 / Fold change vs veh, ARFIP1 / RFU, FAM179B / Fold change vs veh, FAM179B / RFU, BCL10 / Fold change vs veh, BCL10 / RFU, UHRF1BP1L / Fold change vs veh, UHRF1BP1L / RFU, BET1 / Fold change vs veh, BET1 / RFU, CNOT2 / Fold change vs veh, CNOT2 / RFU, ZNF268 / Fold change vs veh, ZNF268 / Fold change vs veh, ZNF507 / RFU, DGCR2 / Fold change vs veh, DGCR2 / RFU, WDSUB1 / Fold change vs veh, WDSUB1 / Fold change vs veh, HSP90B1 /// MIR3652 / RFU, ADSS / Fold change vs veh, ADSS / RFU, GK / Fold change vs veh, GK / RFU, ZNF148 / Fold change vs veh, ZNF148 / RFU, TAF9 / Fold change vs veh, TAF9 / RFU, SLC1A5 / Fold change vs veh, SLC1A5 / RFU, SLMO2 / Fold change vs veh, SLMO2 / RFU, ABCC4 / Fold change vs veh, ABCC4 / RFU, LOC101060439 /// RAP1B / Fold change vs veh, LOC101060439 /// RAP1B / RFU, RFX7 / Fold change vs veh, RFX7 / RFU, GTPBP10 / Fold change vs veh, GTPBP10 / RFU, CNEP1R1 / Fold change vs veh, CNEP1R1 / RFU, BIVM-ERCC5 /// ERCC5 / Fold change vs veh, BIVM-ERCC5 /// ERCC5 / RFU, ILF3 / Fold change vs veh, ILF3 / RFU 11762660_at / Fold change /veh 11762660_at / RFU VCAN (11757783_s_at) / Fold change /veh VCAN (11757783_s_at) / RFU DDX43 (11728927_at) / Fold change /veh DDX43 (11728927_at) / RFU KRT8 (11758188_x_at) / Fold change /veh KRT8 (11758188_x_at) / RFU NKD1 (11759106_at) / Fold change /veh NKD1 (11759106_at) / RFU SRD5A1 (11742802_a_at) / Fold change /veh SRD5A1 (11742802_a_at) / RFU TPSAB1 /// TPSB2 (11721975_s_at) / Fold change /veh TPSAB1 /// TPSB2 (11721975_s_at) / RFU GSTM3 (11746129_a_at) / Fold change /veh GSTM3 (11746129_a_at) / RFU IL23R (11737362_x_at) / Fold change /veh IL23R (11737362_x_at) / RFU TMEM51 (11727254_a_at) / Fold change /veh TMEM51 (11727254_a_at) / RFU PIWIL2 (11732686_x_at) / Fold change /veh PIWIL2 (11732686_x_at) / RFU ORM1 (11744905_x_at) / Fold change /veh ORM1 (11744905_x_at) / RFU CCDC152 (11743942_at) / Fold change /veh CCDC152 (11743942_at) / RFU ECM1 (11717891_a_at) / Fold change /veh ECM1 (11717891_a_at) / RFU IL23R (11748794_a_at) / Fold change /veh IL23R (11748794_a_at) / RFU TNFAIP8L3 (11732012_x_at) / Fold change /veh TNFAIP8L3 (11732012_x_at) / RFU MBOAT4 (11741988_at) / Fold change /veh MBOAT4 (11741988_at) / RFU 11764193_at / Fold change /veh 11764193_at / RFU TMEM53 (11763286_at) / Fold change /veh TMEM53 (11763286_at) / RFU MAGEB2 (11727129_at) / Fold change /veh MAGEB2 (11727129_at) / RFU TMEM200A (11744735_a_at) / Fold change /veh TMEM200A (11744735_a_at) / RFU CCDC152 (11751479_a_at) / Fold change /veh CCDC152 (11751479_a_at) / RFU FAM211A (11726209_a_at) / Fold change /veh FAM211A (11726209_a_at) / RFU RGS16 (11746705_a_at) / Fold change /veh RGS16 (11746705_a_at) / RFU VCAN (11755009_s_at) / Fold change /veh VCAN (11755009_s_at) / RFU RHOB (11743442_s_at) / Fold change /veh RHOB (11743442_s_at) / RFU RGS16 (11720943_a_at) / Fold change /veh RGS16 (11720943_a_at) / RFU RGS16 (11720944_at) / Fold change /veh RGS16 (11720944_at) / RFU, VPS4B / Fold change vs veh, VPS4B / RFU, CREB1 / Fold change vs veh, CREB1 / RFU, DNAJC13 / Fold change vs veh, DNAJC13 / RFU, GNAQ / Fold change vs veh, GNAQ / RFU, CDK5R1 / Fold change vs veh, CDK5R1 / RFU, ZRANB3 / Fold change vs veh, ZRANB3 / RFU, CUL4A / Fold change vs veh, CUL4A / RFU, CCNY / Fold change vs veh, CCNY / RFU, UFL1 / Fold change vs veh, UFL1 / RFU, COG3 / Fold change vs veh, COG3 / RFU, DIAPH2 / Fold change vs veh, DIAPH2 / RFU, SKA2 / Fold change vs veh, SKA2 / RFU, AFF3 / Fold change vs veh, AFF3 / RFU, LMF1 / Fold change vs veh, LMF1 / RFU, IPO11 / Fold change vs veh, IPO11 / RFU, DFFB / Fold change vs veh, DFFB / RFU, FOXP1 / Fold change vs veh, FOXP1 / RFU, CARD8 / Fold change vs veh, CARD8 / RFU, STRN3 / Fold change vs veh, STRN3 / RFU, ADK / Fold change vs veh, ADK / RFU, RASSF2 / Fold change vs veh, RASSF2 / RFU, WIPF1 / Fold change vs veh, WIPF1 / RFU, LARP1B / Fold change vs veh, LARP1B / RFU, RASA1 / Fold change vs veh, RASA1 / RFU, RB1 / Fold change vs veh, RB1 / RFU, PPFIA1 / Fold change vs veh, PPFIA1 / RFU, MAT2A / Fold change vs veh, MAT2A / RFU, CCT5 / Fold change vs veh, CCT5 / RFU, WDR92 / Fold change vs veh, WDR92 / RFU, CUX1 / Fold change vs veh, CUX1 / RFU, TTC7A / Fold change vs veh, TTC7A / RFU, TMEM135 / Fold change vs veh, TMEM135 / RFU, DEPTOR / Fold change vs veh, DEPTOR / RFU, CPM / Fold change vs veh, CPM / RFU, DNAJB6 / Fold change vs veh, DNAJB6 / RFU, CACNA2D3 / Fold change vs veh, CACNA2D3 / RFU, DTX4 / Fold change vs veh, DTX4 / RFU, TFCP2 / Fold change vs veh, TFCP2 / RFU, GMCL1 /// GMCL1P1 / Fold change vs veh, GMCL1 /// GMCL1P1 / RFU, AEBP2 / Fold change vs veh, AEBP2 / RFU, SNHG1 /// SNORD22 /// SNORD25 /// SNORD26 /// SNORD27 /// SNORD28 /// SNORD29 /// SNORD31 / Fold change vs veh, SNHG1 /// SNORD22 /// SNORD25 /// SNORD26 /// SNORD27 /// SNORD28 /// SNORD29 /// SNORD31 / Fold change (Aza/veh), C12orf56 (ProbeSet 11735607_a_at) / Fold change (ACY-1035/veh), C12orf56 (ProbeSet 11735607_a_at) / Fold change (Aza/veh), FGFR1OP (ProbeSet 11751329_s_at) / Fold change (ACY-1035/veh), FGFR1OP (ProbeSet 11751329_s_at) / Fold change (Aza/veh), VPS36 (ProbeSet 11739960_a_at) / Fold change (ACY-1035/veh), VPS36 (ProbeSet 11739960_a_at) / RFU SYPL1 (11715823_x_at) / Fold change /veh SYPL1 (11715823_x_at) / RFU IGFBP7 (11715501_s_at) / Fold change /veh IGFBP7 (11715501_s_at) / RFU REEP3 (11722064_at) / Fold change /veh REEP3 (11722064_at) / RFU IGLL1 (11728026_x_at) / Fold change /veh IGLL1 (11728026_x_at): dose or concentration left out as unconfirmed
Details: ProbeSet 11753616_s_at; LIST B

SMILES: Nc1ccc(-c2cccs2)cc1NC(=O)c1ccc2c(c1)cc(C1CC1)n2CCN1CCOCC1 [ACY-1035]
- Fold change vs veh, ARL8B: 0.90
